From patent US5663172A, “Preventive agent for platelet aggregation” (Nippon Soda Co., Ltd., priority 1992, dated 1997)
Like-named read-outs stand apart in the source and are kept apart here.

Assays:
[1] = system: Left Cardiac Ventricle (dp/dt max), heart rate, blood pressure; test: Cardiotonic effect in anesthetized Beagle dogs (dp/dt max, heart rate, blood pressure); format: in vivo; conditions: for ED50: Canis lupus familiaris, cumulative 0.001 to 0.3 mg/0.1 ml/Kg, read-out: ED50 for dp/dt max in Left Cardiac Ventricle (dose attaining 50% increase)
Experimental: Male and female Beagle dogs in a weight range of from 10 to 15 Kg were anesthetized to provide them for the test. The dogs were anesthetized by intravenous injection with sodium pentobarbital at a dose of […], and the anesthetized condition was maintained by subsequent intravenous injection with sodium pentobarbital at a dose of 4 mg/Kg/hr. A cannula for drip infusion either of physiological saline solution or anesthetic injection was inserted into a femoral vein, and a cannula for measuring arterial blood pressure was inserted into a femoral artery via a pressure transducer. Heart rate was recorded by conducting R-wave of the electrocardiogram (ECG) to a heart beat counter. Secondary induction from electrocardiogram was measured via a bioelectricity-adapted amplifier. Internal pressure of left cardiac ventricle was measured by inserting a catheter-type pressure transducer from a left carotid into left cardiac ventricle. Differential values by time of the internal pressure in left cardiac ventricle (dp/dt max) were measured by conducting the internal pressure in left cardiac ventricle to a derivative amplifier. The test compound was cummulatively administrated at a rate of from 0.001 to 0.3 mg/0.1 ml/Kg though a cannula inserted into a femoral vein. Based on a dose-response curve obtained, ED50, a dose attaining 50% increase of the dp/dt max in left cardiac ventricle, was determined.

Mice = test: Preventive effect on thrombus-causing death (collagen + epinephylline i.v. in mice); format: in vivo; conditions: for ED50: Mus musculus, po, 0.5 h, read-out: ED50 for preventing Thrombus-causing Death
Experimental: Preventive Effect on Thrombus-causing Death
Mice in a state without feeding for a night were orally administrated with a test compound, and then injected intravenously with collagen in an amount of 400 μg/Kg and epinephylline in an amount of 50 μg/Kg through their tail at a fixed speed in accordance with the method of DiMinno and Silver (DiMinno, G. and Silver, M. J., J. Pharmacol. Exp. Thor., 225, 57-60, 1983). After 30 min., the mice were checked to determine their survival rate and to calculate EC50, a dose attaining 50% prevention of the death of the mice. The collagen and epinephylline were used in a form of a mixed solution prepared with SKF buffer solution and saline, respectively. Test compounds were administrated to mice after preparing each suspensions of the compounds in 1% aqueous solution of gum arabic.

[2] = target: T1, Cyclic guanosine monophosphate inhibiting-type cyclic adenosine monophosphate phosphodiesterase (cAMP-PDE) (Canis lupus familiaris, UniProt A0A8I3NYE0); test: Inhibitory effect on phosphodiesterase (cGMP inhibiting-type cAMP-PDE from canine platelets); format: biochemical; conditions: for IC50: canine platelets, 1 μM [3H]-cAMP
T1 construct: derived from canine platelets was prepared according to the method of Thompson et. al; from tissue; host or cells: canine platelets (DEAE-cellulose fraction)
T1 sequence (A0A8I3NYE0 1-1135): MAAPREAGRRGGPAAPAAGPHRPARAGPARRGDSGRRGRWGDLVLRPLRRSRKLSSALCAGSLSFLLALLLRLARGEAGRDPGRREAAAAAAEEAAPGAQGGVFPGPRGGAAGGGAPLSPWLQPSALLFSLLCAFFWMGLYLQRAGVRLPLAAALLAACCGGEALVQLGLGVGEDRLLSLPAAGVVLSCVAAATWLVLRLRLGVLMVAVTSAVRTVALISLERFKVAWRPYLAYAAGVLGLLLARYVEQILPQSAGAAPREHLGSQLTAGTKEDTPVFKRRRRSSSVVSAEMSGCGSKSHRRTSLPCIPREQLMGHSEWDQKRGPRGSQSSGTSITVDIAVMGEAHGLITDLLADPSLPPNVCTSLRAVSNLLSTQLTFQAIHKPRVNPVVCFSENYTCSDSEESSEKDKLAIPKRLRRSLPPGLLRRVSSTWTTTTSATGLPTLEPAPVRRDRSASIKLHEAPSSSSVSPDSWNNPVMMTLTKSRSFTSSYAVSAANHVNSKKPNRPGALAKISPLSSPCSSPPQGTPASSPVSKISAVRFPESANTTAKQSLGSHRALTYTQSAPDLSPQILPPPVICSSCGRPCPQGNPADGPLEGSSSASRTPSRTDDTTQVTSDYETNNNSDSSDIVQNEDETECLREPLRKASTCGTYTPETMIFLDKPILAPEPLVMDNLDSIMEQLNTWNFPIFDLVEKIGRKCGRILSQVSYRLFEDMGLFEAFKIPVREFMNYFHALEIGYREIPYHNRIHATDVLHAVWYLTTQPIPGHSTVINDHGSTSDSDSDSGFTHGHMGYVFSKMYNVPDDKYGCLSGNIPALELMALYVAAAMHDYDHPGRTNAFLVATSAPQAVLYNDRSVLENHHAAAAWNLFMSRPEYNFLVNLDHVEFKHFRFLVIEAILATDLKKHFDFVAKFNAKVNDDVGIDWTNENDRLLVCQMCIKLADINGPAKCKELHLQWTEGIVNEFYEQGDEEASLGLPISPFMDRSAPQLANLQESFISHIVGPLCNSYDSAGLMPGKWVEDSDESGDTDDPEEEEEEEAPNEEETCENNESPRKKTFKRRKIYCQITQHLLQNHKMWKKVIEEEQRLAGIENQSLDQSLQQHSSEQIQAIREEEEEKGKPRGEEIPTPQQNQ

[3] = system: platelet aggregation (rabbit platelet rich plasma); test: Preventive effect on platelet aggregation in vitro (aggregometer; rabbit platelet rich plasma; ADP or collagen induced); format: cell-based, rabbits; conditions: for EC50: Oryctolagus cuniculus, Platelet, rabbit PRP
Experimental: Preventive Effect on Platelet Aggregation The preventive effect on platelet aggregation of the compounds and the complexes of the present invention was evaluated in vitro based on the preventive effect on the platelet aggregation induced by adenosine diphosphate (ADP) and collagen, which is determined by using an aggregometer, Hematracer PAT-606 produced by Nicho Bioscience Co., Ltd. Blood collected from rabbits containing 0.38% citric acid was centrifuged at 1100 rpm for 15 min. to obtain platelet rich plasm (PRP). The PRP obtained was then centrifuged at 3500 rpm for 10 min., and the supernatant obtained was provided as platelet poor plasma (PPP). PRP was diluted with PPP to adjust the concentration of platelets in PRP to a range of from 2×10^8 /ml to 5×10^8 ml. .left brkt-top.Either ADP at the final concentration of 10 μM or collagen at the final concentration of 20 μg/ml, which was prepared with SKF buffer solution (Collagen reagent Horm, Hormon Chemie) was used for the induction of platelet aggregation. .right brkt-bot. Test compound was dissolved into dimethyl sulfoxide (DMSO), then 0.5 ml of PRP prepared as described above was added to 0.5 μl of the solution, then mixed for about 3 min. Then, 0.2 ml portion was taken out of the mixture, and either ADP solution or collagen solution in an amount of 22 μl was added thereto to proceed to the measurement of platelet aggregation for 10 min. by using an aggregometer. The preventive effect on platelet aggregation was determined in the prevention rate (%) in respect to the aggregation rate in the check plot. The rate of prevention onto platelet aggregation was calculated according to the following equation. Platelet Aggregation Prevention Rate (%)=(Maximum Aggregation Rate(%) of Platelet when only DMSO is added-Maximum Aggregation Rate(%) of Platelet when Test Compound and DMSO are added).div.Maximum Aggregation Rate(%) of Platelet when only DMSO is added Based on the dose-response curve obtained according to the equation described above, EC50, a dose attaining 50% prevention of platelet aggregation, was determined.

[4] = system: Left Cardiac Ventricle (dp/dt max), heart rate, blood pressure; test: Cardiotonic effect in anesthetized Beagle dogs (dp/dt max, heart rate, blood pressure); format: in vivo; conditions: i.v. at 0.3 mg/kg (footnote *)
[5] = ADP at final concentration 10 μM, read-out: EC50 for Platelet Aggregation Prevention, ADP
[6] = collagen at final concentration 20 μg/ml, read-out: EC50 for Platelet Aggregation Prevention, Collagen
[7] = i.v., anesthetized Beagle dogs, dose not stated

SMILES	ED50 ([1]; iv, anesthetized Beagle dogs) [mg/kg]	% Change in Blood pressure ([1]; dog, in vivo, iv) [%]	% Change in Heart Rate ([1]; dog, in vivo, iv) [%]	ED50 (Mice) [mg/kg]	IC50 [2] [µM]	EC50 [3, 5] [µM]	EC50 [3, 6] [µM]	% Change in Blood pressure [4] [%]	% Change in Heart Rate [4] [%]	% Change in dp/dt max in Left Cardiac Ventricle [4] [%]	% Change in Blood pressure [1, 7] [%]	% Change in Heart Rate [1, 7] [%]	Effect in Test Example 4 (cardiotonic effect) compared with compound No. 2 ([1]; in words)	Effect in Test Example 2 (thrombus-causing death) compared with compound No. 2 (Mice; in words)	Effect in Test Example 3 (phosphodiesterase) compared with compound No. 2 ([2]; in words)	Effect in Test Example 1 (platelet aggregation) compared with compound No. 2 ([3]; in words)
O=C1CCc2cc(OCCCCc3nnnn3C3CCCCC3)ccc2N1 [Cilostazol, reference compound]	0.2	-2.1	15	300	0.6	10.2	4.3	–	–	–	–	–	–	–	–	–
CCCC1=C(Nc2ccc(C3=NNC(=O)CC3)cc2)CCCC1=O [Compound No. 1, 4,5-dihydro-6-[4-[(2-propyl-3-oxo-1-cyclohexenyl)amino]phenyl]-3(2H)-pyridazine]	> 0.3	–	–	5	0.43	29.8	9.3	-8.6	5.2	32	–	–	–	–	–	–
CCCC1=C(Nc2ccc(C3=NNC(=O)CC3)cc2)CCC1=O [compound 3]	0.1	–	–	6.8	0.37	22.8	12.9	–	–	–	-10.5	7.5	–	–	–	–
CCCC1=C(Nc2ccc(C3=NNC(=O)CC3C)cc2)CCCC1=O (stereo not drawn) [Compound No. 2, 4,5-dihydro-5-methyl-6-[4-[(2-propyl-3-oxo-1-cyclohexenyl)amino]phenyl]-3(2H)-pyridazinone]	0.052	–	–	1.7	0.088	4.5	3.6	–	–	–	-10.0	9.8	as much as the effects given by the compound No. 2	as much as the effects given by the compound No. 2	as much as the effects given by the compound No. 2	as much as the effects given by the compound No. 2
